Data as given in patent US20230142547A1, “COMPOUNDS FOR TREATING OR PREVENTING A CORONAVIRIDAE INFECTION & METHODS AND USES FOR ASSESSING THE OCCURRENCE OF A CORONAVIRIDAE INFECTION” (ABIVAX, priority 2020, published 2023).
Where two headings read alike, the source gives them in different places.

Key:
[1] = Tissue distribution of radioactivity in rat after single oral [14C]-ABX464 (whole-body autoradiography, liquid scintillation counting); assay type: in vivo; conditions: for concentration of radioactivity, Aortic wall / concentration of radioactivity, Lung / concentration of radioactivity, Myocardium / concentration of radioactivity, Nasal mucosa / concentration of radioactivity, Oesophageal wall / concentration of radioactivity, Tongue / concentration of radioactivity, Blood / concentration of radioactivity, Plasma: male albino rats, single oral 20 mg/kg; for concentration of radioactivity, Blood / concentration of radioactivity, Plasma: liquid scintillation counting
Procedure: (§1) This study was conducted in order to determine the tissue distribution and rates and routes of excretion of radioactivity in the rat following a single oral administration of [^14C]-ABX464. Analysis was performed using liquid scintillation counting (plasma and excreta) and quantitative whole-body autoradiography.
(§2) All animals received a single oral administration of [^14C]-ABX464 by oral gavage, at a nominal dose level of 20 mg/kg body weight and a dose volume of approximately 5 mL/kg. The target radioactive dose administered was ca 8 MBq/kg body weight.
Radioactivity in Blood and Plasma Whilst under terminal anaesthesia, but before freezing, up to 2 mL of blood was obtained from all animals by cardiac puncture and transferred to tubes pre-coated with K2-EDTA. The residual sample was centrifuged in order to obtain plasma. The radioactivity concentration was measured in blood and plasma by liquid scintillation counting.
For each animal, the legs, tail and whiskers were trimmed off and the frozen carcass set in a block of aqueous 2% (w/v) carboxymethylcellulose. The block was mounted onto the stage of a Leica CM3600 cryomicrotome maintained at ca −20° C. (Leica Microsystems (UK) Ltd) and sagittal sections (nominal thickness 30 μm) were obtained through the carcass to include the following tissues: exorbital lachrymal gland, intra-orbital lachrymal gland, Harderian gland, adrenal gland, thyroid, brain and spinal cord. The sections, mounted on Filmolux 610 Tape (Neschen UK), were freeze-dried in a GVD03 bench-top freeze-drier (Girovac Ltd) and placed in contact with FUJI imaging plates (type BAS-MS, Raytek Scientific Ltd). [^14C]-Blood standards of appropriate activity (also sectioned at a nominal thickness of 30 μm) were placed in contact with all imaging plates.
After exposure in a copper-lined, lead exposure box for 7 days, the imaging plates were processed using a FUJI FLA-5000 radiography system (Raytek Scientific Ltd). Electronic images were analysed using a PC-based image analysis package (Seescan 2 software, LabLogic Ltd). The carbon-14 standards included with each autoradiogram were used to construct calibration lines over a range of radioactivity concentrations.
Wherever possible, the maximum area within a single autoradiogram was defined for each tissue for measurement.
(§3) A suitable scintillation counter was used. Radioassays were performed at least in duplicate. Efficiency correlation curves were prepared and routinely checked by the use of [14-C]toluene and Ultima Gold™ quenched standards (PerkinElmer LAS (UK) Ltd).
Concentration of radioactivity in sample=C (dpm/g)
Specific radioactivity of test substance=S (MBq/mg)
Concentration of radioactivity in sample=(C/60000)/S (μg equiv/g)

[2] = test system: SARS-CoV2; assay: Inhibition of SARS-CoV2 replication in MucilAir reconstituted human airway epithelium, viral genome by RT-qPCR; assay type: cell-based; conditions: for effect on SARS-CoV2 replication (in words): daily treatment, increasing concentrations
[3] = test system: SARS-CoV2; assay: ABX464 in combination with Remdesivir: SARS-CoV2 viral RNA in HAE by RT-qPCR; assay type: cell-based; conditions: FIG. 3B
[4] = Rates and routes of excretion of radioactivity in rat after single oral [14C]-ABX464; assay type: in vivo
Procedure: as §1, §2, §3

[5] = test system: human reconstituted airway epithelial model of bronchial origin; assay type: cell-based; conditions: infected HAE, 48h post-infection
[6] = test system: SARS-CoV-2; assay type: cell-based; conditions: 48 hours post-infection, FIG. 2
[7] = Severe acute respiratory syndrome coronavirus 2, RTqPCR, mean of duplicates, read-out: % inhibition of viral infection, MEAN
[8] = Severe acute respiratory syndrome coronavirus 2, RTqPCR, replicate N1, read-out: % inhibition of viral infection, N1
[9] = Severe acute respiratory syndrome coronavirus 2, RTqPCR, replicate N2, read-out: % inhibition of viral infection, N2

For `FC(F)(F)Oc1ccc(Nc2ccc3cccc(Cl)c3n2)cc1` [ABX464, 8-Chloro-N-(4-(trifluoromethoxy)phenyl)quinolin-2-amine], the “concentration of radioactivity, Aortic wall” value (“concentration … Aortic wall” below) ([1]; 1 hour) was 0.337 μg equivalents per gram, the “concentration of radioactivity, Lung” value ([1]; 1 hour) was 1.19 μg equivalents per gram and the “concentration of radioactivity, Myocardium” value (from here on “concentration … Myocardium”) ([1]; 1 hour) was 1.28 μg equivalents per gram. The “concentration of radioactivity, Nasal mucosa” value (from here on “concentration … Nasal mucosa”) ([1]; 1 hour) was 0.252 μg equivalents per gram, the “concentration of radioactivity, Oesophageal wall” value (“concentration … Oesophageal wall” below) ([1]; 1 hour) was 1.72 μg equivalents per gram and the “concentration of radioactivity, Tongue” value ([1]; 1 hour) was 0.495 μg equivalents per gram. The “concentration of radioactivity, Blood” value ([1]; 1 hour) was 0.398 μg equivalents per gram, the “concentration of radioactivity, Plasma” value ([1]; 1 hour) was 0.461 μg equivalents per gram and the “concentration … Aortic wall” value ([1]; 4 hours) was 1.59 μg equivalents per gram. For the same compound, the “concentration of radioactivity, Lung” value ([1]; 4 hours) was 1.89 μg equivalents per gram, the “concentration … Myocardium” value ([1]; 4 hours) was 1.45 μg equivalents per gram and the “concentration … Nasal mucosa” value ([1]; 4 hours) was 0.708 μg equivalents per gram. The “concentration … Oesophageal wall” value ([1]; 4 hours) was 2.72 μg equivalents per gram, the “concentration of radioactivity, Tongue” value ([1]; 4 hours) was 1.92 μg equivalents per gram and the “concentration of radioactivity, Blood” value ([1]; 4 hours) was 0.978 μg equivalents per gram. The “concentration of radioactivity, Plasma” value ([1]; 4 hours) was 1.25 μg equivalents per gram, the “concentration … Aortic wall” value ([1]; 8 hours) was 1.74 μg equivalents per gram and the “concentration of radioactivity, Lung” value ([1]; 8 hours) was 1.45 μg equivalents per gram. For the same compound, the “concentration … Myocardium” value ([1]; 8 hours) was 0.677 μg equivalents per gram, the “concentration … Nasal mucosa” value ([1]; 8 hours) was 0.585 μg equivalents per gram and the “concentration … Oesophageal wall” value ([1]; 8 hours) was 0.795 μg equivalents per gram. For the same compound, the “concentration of radioactivity, Tongue” value ([1]; 8 hours) was 0.689 μg equivalents per gram, the “concentration of radioactivity, Blood” value ([1]; 8 hours) was 0.807 μg equivalents per gram and the “concentration of radioactivity, Plasma” value ([1]; 8 hours) was 1.18 μg equivalents per gram. The “concentration … Aortic wall” value ([1]; 24 hours) was 0.129 μg equivalents per gram, the “concentration of radioactivity, Lung” value ([1]; 24 hours) was 0.457 μg equivalents per gram and the “concentration … Myocardium” value ([1]; 24 hours) was 0.143 μg equivalents per gram. For the same compound, the “concentration … Nasal mucosa” value ([1]; 24 hours) was 0.084 μg equivalents per gram, the “concentration … Oesophageal wall” value ([1]; 24 hours) was 0.265 μg equivalents per gram and the “concentration of radioactivity, Tongue” value ([1]; 24 hours) was 0.122 μg equivalents per gram. The “concentration of radioactivity, Blood” value ([1]; 24 hours) was 0.229 μg equivalents per gram, the “concentration of radioactivity, Plasma” value ([1]; 24 hours) was 0.203 μg equivalents per gram and the “increase of affinity of related radioactivity to bind to the cellular partition of blood” value ([1]; over the study duration, rat, oral 20 mg/kg) was 10 fold. For the same compound, the “binding of related material to melanin” value ([1]; rat, oral 20 mg/kg) was “no evidence for the binding”, the “radioactivity in the central nervous system / blood-brain barrier” value ([1]; rat, oral 20 mg/kg) was “drug related material crossed the blood-brain barrier, but was subsequently eliminated” and the “systemic and tissue bioavailability by the oral route (in words)” value ([1]; rat, oral 20 mg/kg) was “excellent systemic and tissue bioavailability”. The inhibition at 0.1 µM [2, 7] was 32.5%, the inhibition at 0.1 µM [2, 8] was 26.4% and the inhibition at 0.1 µM [2, 9] was 38.5%. For the same compound, the inhibition at 1 µM [2, 7] was 93.2%, the inhibition at 1 µM [2, 8] was 88.8% and the inhibition at 1 µM [2, 9] was 97.7%. For the same compound, the inhibition at 5 µM ([2]; Severe acute respiratory syndrome coronavirus 2, 5 μM, RTqPCR, mean of duplicates, read-out: % inhibition of viral infection, MEAN) was 95.5%, the inhibition at 5 µM ([2]; Severe acute respiratory syndrome coronavirus 2, 5 μM, RTqPCR, replicate N1, read-out: % inhibition of viral infection, N1) was 99.4% and the inhibition at 5 µM ([2]; Severe acute respiratory syndrome coronavirus 2, 5 μM, RTqPCR, replicate N2, read-out: % inhibition of viral infection, N2) was 91.7%. The “effect on SARS-CoV2 replication (in words)” value (shortened to “effect”) [2] was “dose-dependent inhibition of SARS-CoV2 replication”, the “reduction of viral RNA” value ([3]; 1 μM of ABX464 alone, HAE, RT-qPCR) was 1.5 log and the “radioactivity remaining in carcasses” value ([4]; final sampling time of 168 hours, excretion balance phase) was “less than 0.5 % of the administered dose”. For the same compound, the “elimination of radioactivity via faeces” value ([4]; rat, oral 20 mg/kg) was 88%, the “radioactivity excreted via the renal system” value ([4]; rat, oral 20 mg/kg) was “less than 5%” and the “total mean recovery of radioactivity” value ([4]; rat, oral 20 mg/kg) was 93%±1.8. The “orally administered dose absorbed” value ([4]; rat, oral 20 mg/kg, inferred from excretion) was “at least 5%”, the “epithelium integrity measured by TEER (in words)” value [5] was “protective effect on the integrity of bronchial epithelium” and the “TCID50 (in words)” value [6] was “dose-dependent decrease of the TCID50”.

Compound `CCC(CC)COC(=O)[C@H](C)N[P@](=O)(OC[C@H]1O[C@@](C#N)(c2ccc3c(N)ncnn23)[C@H](O)[C@@H]1O)Oc1ccccc1` [Remdesivir, reference compound] has an inhibition at 5 µM ([2]; Severe acute respiratory syndrome coronavirus 2, read-out: % inhibition of viral infection, MEAN) of 100%, an inhibition at 5 µM ([2]; Severe acute respiratory syndrome coronavirus 2, read-out: % inhibition of viral infection, N1) of 99.9% and an inhibition at 5 µM ([2]; Severe acute respiratory syndrome coronavirus 2, read-out: % inhibition of viral infection, N2) of 100%. The “reduction of viral RNA” value ([3]; REM alone (5 μM), values from another experiment) was 4 log.

In the case of `N#Cc1ccc(Nc2ccc3ccccc3n2)nc1` [ABX300, reference compound], the “% inhibition of viral replication” value ([2]; all tested concentrations (10 μM, 1 μM and 0.1 μM)) is reported as 0%, the “effect” value [2] is reported as “fails to show a marked effect on viral replication” and the “epithelium integrity measured by TEER (in words)” value [5] is reported as “reduction in epithelium integrity”. For the same compound, the “TCID50 (in words)” value [6] was “very modest effect on the TCID50”.

`O=C(O)[C@H]1O[C@@H](N(c2ccc(OC(F)(F)F)cc2)c2ccc3cccc(Cl)c3n2)[C@H](O)[C@@H](O)[C@@H]1O` [ABX464-N-Gluc] gave an inhibition at 0.1 µM [2, 7] of 0%, an inhibition at 0.1 µM [2, 8] of 0% and an inhibition at 0.1 µM [2, 9] of 0%. The inhibition at 1 µM [2, 7] was 29%, the inhibition at 1 µM [2, 8] was 20% and the inhibition at 1 µM [2, 9] was 38%. For the same compound, the inhibition at 10 µM [2, 7] was 88%, the inhibition at 10 µM [2, 8] was 99.9% and the inhibition at 10 µM [2, 9] was 76%. The “effect” value [2] was “dose-dependent effect” and the “TCID50 (in words)” value [6] was “a decrease is also observed”.
